The record followed here is PubChem BioAssay (NCI).

SMILES strings stand for the structures. Values joined by “and” are separate entries in the source; they are usually repeats but may differ in a detail not shown here. Identical values can stand only once.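 Tested at 5 concentrations; 48 h exposure; 96-well plates; endpoints linearly interpolated, else capped at highest concentration. GI50 marks 50% less growth. TGI: concentration producing complete growth inhibition.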 A value given as a limit tells only on which side of the number the result lay.

Among the test systems are A498 renal; ACHN renal; BT-549 breast; EKVX NSCLC; LOX IMVI melanoma; MOLT-4 leukemia; NCI-H23 lung; SK-MEL-2 melanoma; UACC-257 melanoma; UO-31 renal.
Common to all, as to assay: growth of human tumour cells (NCI), 48 h

On to `Nc1ccn(C2OC(COP(=O)(O)O)C(O)C2O)c(=O)n1` (stereo not given), for which the TGI is greater than 100 µM in the experiment with A498 renal; greater than 41.4 µM in the experiment on ACHN renal; greater than 100 µM with BT-549 breast; greater than 100 µM with EKVX NSCLC; greater than 100 µM in the experiment with LOX IMVI melanoma; 13.2 µM with MOLT-4 leukemia. The TGI in the experiment on NCI-H23 lung, with SK-MEL-2 melanoma, in the experiment on UACC-257 melanoma and in the experiment on UO-31 renal was greater than 100 µM throughout.
Turning to `C[C@]12CC[C@@H]3c4ccc(OCC(=O)O)cc4CC[C@H]3[C@@H]1CCC2=O`, the TGI with A498 renal is greater than 100 µM; in the experiment with ACHN renal it was greater than 100 µM; in the experiment on BT-549 breast, greater than 100 µM; in the experiment with EKVX NSCLC, greater than 100 µM; in the experiment with LOX IMVI melanoma, greater than 100 µM; in the experiment on MOLT-4 leukemia it was 64.4 µM. For the same compound, the TGI in the experiment on NCI-H23 lung, in the experiment with SK-MEL-2 melanoma, in the experiment with UACC-257 melanoma and in the experiment with UO-31 renal was greater than 100 µM throughout.
Consider `Nc1nc(F)nc2c1ncn2C1OC(COP(=O)(O)O)C(O)C1O` (stereo not given), for which the TGI with A498 renal stood at 694 µM; in the experiment on ACHN renal, 247 µM; in the experiment with BT-549 breast, 302 µM; in the experiment on EKVX NSCLC it was 406 µM; in the experiment on LOX IMVI melanoma, 334 µM; in the experiment with MOLT-4 leukemia it was 224 µM. For the same compound, the TGI was 243 µM in the experiment with NCI-H23 lung, 151 µM with SK-MEL-2 melanoma, 813 µM with UACC-257 melanoma and 76.4 µM in the experiment on UO-31 renal.
Regarding `O=[N+]([O-])c1ccccc1/C=C/C=C1c2ccccc2-c2ccccc21`, the GI50 with A498 renal, with ACHN renal, with BT-549 breast, with EKVX NSCLC, with LOX IMVI melanoma and with MOLT-4 leukemia was greater than 100 µM throughout. For the same compound, the GI50 with NCI-H23 lung, in the experiment on SK-MEL-2 melanoma, in the experiment with UACC-257 melanoma and in the experiment with UO-31 renal was greater than 100 µM each time. Besides, the TGI with A498 renal, in the experiment on ACHN renal, in the experiment on BT-549 breast, in the experiment with EKVX NSCLC, with LOX IMVI melanoma and with MOLT-4 leukemia was greater than 100 µM in each case. Further, the TGI with NCI-H23 lung, in the experiment on SK-MEL-2 melanoma, with UACC-257 melanoma and in the experiment on UO-31 renal was greater than 100 µM in each case.
For `OCC1OC(O)C(N=Cc2ccc3c(c2)OCO3)C(O)C1O` (stereo not given), the TGI in the experiment on A498 renal, in the experiment on ACHN renal, in the experiment on BT-549 breast, in the experiment on EKVX NSCLC, in the experiment with LOX IMVI melanoma and in the experiment on MOLT-4 leukemia was greater than 100 µM throughout. Besides, the TGI in the experiment on NCI-H23 lung, in the experiment with SK-MEL-2 melanoma, with UACC-257 melanoma and in the experiment on UO-31 renal was greater than 100 µM each time.
Regarding `CNC(=O)c1ccc(Nc2nc(OC3CCCC3)c3c(-c4ccc5nc(C)oc5c4)c[nH]c3n2)c(OC)c1`, the GI50 with A498 renal is 0.547 µM; in the experiment on ACHN renal, 0.438 µM; with BT-549 breast, 2.04 µM; with EKVX NSCLC, greater than 100 µM; in the experiment on LOX IMVI melanoma, 0.381 µM; with MOLT-4 leukemia, 1.63 µM. The GI50 was 4.55 µM in the experiment on NCI-H23 lung, greater than 51.3 µM with SK-MEL-2 melanoma, greater than 100 µM in the experiment with UACC-257 melanoma and 2.97 µM in the experiment on UO-31 renal. Further, the TGI in the experiment with A498 renal, in the experiment with ACHN renal, in the experiment on BT-549 breast, with EKVX NSCLC, in the experiment on LOX IMVI melanoma and in the experiment on MOLT-4 leukemia was greater than 100 µM in each case. Also, the TGI with NCI-H23 lung, in the experiment with SK-MEL-2 melanoma, with UACC-257 melanoma and with UO-31 renal was greater than 100 µM in each case.
As to `CC1=Cc2cc3[n-]c(cc4nc(cc5[n-]c(cc1n2)c(C)c5CCC(=O)O)C(CCC(=O)O)=C4C)cc3C.[Cu+2]`, the GI50 with A498 renal is > 1 µM and 16.2 µM; with ACHN renal, > 1 µM and 38.8 µM; in the experiment on BT-549 breast, 14.5 µM; in the experiment on EKVX NSCLC, greater than 66.4 µM; with LOX IMVI melanoma, 28.1 µM; in the experiment with MOLT-4 leukemia, > 1 µM and 46.3 µM. Besides, the GI50 was > 1 µM and 24.9 µM with NCI-H23 lung; > 1 µM and 10.9 µM with SK-MEL-2 melanoma; > 1 µM and 40.8 µM in the experiment with UACC-257 melanoma; > 1 µM and 38.3 µM in the experiment on UO-31 renal. Also, the TGI in the experiment on A498 renal is > 1 µM and 36.5 µM; with ACHN renal, greater than 100 µM; in the experiment on BT-549 breast it was 27.8 µM; in the experiment on EKVX NSCLC, greater than 100 µM; with LOX IMVI melanoma, greater than 65.3 µM; in the experiment with MOLT-4 leukemia it was greater than 88.7 µM. Moreover, the TGI with NCI-H23 lung is > 1 µM and 52.8 µM; in the experiment with SK-MEL-2 melanoma, greater than 81.7 µM; in the experiment on UACC-257 melanoma, greater than 85.4 µM; in the experiment on UO-31 renal, greater than 92.7 µM.
With `Cc1cc(S(=O)(=O)/N=C(\N)n2nc(C)c(C)c2C)c(SCc2ccccc2)cc1Cl`, the GI50 is greater than 100 µM in the experiment on A498 renal; greater than 100 µM in the experiment with ACHN renal; greater than 100 µM with BT-549 breast; 5.38 µM in the experiment with EKVX NSCLC; greater than 100 µM in the experiment on LOX IMVI melanoma; 3.52 µM in the experiment on MOLT-4 leukemia. Moreover, the GI50 was 7.04 µM with NCI-H23 lung, greater than 100 µM in the experiment with SK-MEL-2 melanoma, 63.8 µM in the experiment on UACC-257 melanoma and 4.57 µM in the experiment on UO-31 renal. For the same compound, the TGI with A498 renal, in the experiment with ACHN renal, in the experiment on BT-549 breast, in the experiment with EKVX NSCLC, in the experiment with LOX IMVI melanoma and with MOLT-4 leukemia was greater than 100 µM each time. Besides, the TGI in the experiment on NCI-H23 lung, in the experiment with SK-MEL-2 melanoma, with UACC-257 melanoma and in the experiment on UO-31 renal was greater than 100 µM throughout.
With `CCOC(=O)c1ccc2[nH]c(Cc3[nH]c4ccc(C(=O)OCC)cc4c3C)c(C)c2c1`, the GI50 is 5.45 µM in the experiment on A498 renal; 2.28 µM with ACHN renal; 11.6 µM with BT-549 breast; 5.09 µM in the experiment with EKVX NSCLC; 0.384 µM in the experiment with LOX IMVI melanoma; 1.83 µM with MOLT-4 leukemia. Moreover, the GI50 with NCI-H23 lung was 6.35 µM; in the experiment with SK-MEL-2 melanoma, 14.1 µM; with UACC-257 melanoma, 9.4 µM; in the experiment on UO-31 renal, 7.26 µM. Besides, the TGI worked out at 23.1 µM in the experiment on A498 renal; 15.8 µM with ACHN renal; 37 µM in the experiment with BT-549 breast; 26.4 µM in the experiment with EKVX NSCLC; 5.72 µM in the experiment with LOX IMVI melanoma; 26.8 µM with MOLT-4 leukemia. Also, the TGI in the experiment with NCI-H23 lung came out at 25.8 µM; with SK-MEL-2 melanoma, 40.5 µM; in the experiment on UACC-257 melanoma, 46.1 µM; in the experiment on UO-31 renal it was 30.8 µM.
As for `Nc1c(C(=O)Nc2cccc3ccccc23)sc2nc3c(cc12)CCCCC3`, the GI50 is 0.646 µM in the experiment on A498 renal; 2.59 µM in the experiment on ACHN renal; 0.549 µM in the experiment on BT-549 breast; 1.35 µM in the experiment with EKVX NSCLC; 0.909 µM with LOX IMVI melanoma; 0.418 µM in the experiment with MOLT-4 leukemia. Besides, the GI50 was 1.78 µM in the experiment on NCI-H23 lung, greater than 50 µM in the experiment with SK-MEL-2 melanoma, 17.1 µM in the experiment with UACC-257 melanoma and 1.91 µM with UO-31 renal. The TGI was 25.8 µM with A498 renal; greater than 50 µM in the experiment with ACHN renal; 3.75 µM with BT-549 breast; greater than 50 µM in the experiment with EKVX NSCLC; greater than 50 µM with LOX IMVI melanoma; greater than 50 µM with MOLT-4 leukemia. In addition, the TGI in the experiment with NCI-H23 lung, in the experiment with SK-MEL-2 melanoma, in the experiment on UACC-257 melanoma and in the experiment with UO-31 renal was greater than 50 µM in each case.
With `O=C(/C=C/C12c3ccccc3C(c3ccccc31)C1C(=O)NC(=O)C12)c1ccco1` (stereo not given), the GI50 in the experiment with A498 renal was 2.42 µM; with ACHN renal, 3.63 µM; in the experiment on BT-549 breast, 2.89 µM; in the experiment with EKVX NSCLC, 3.16 µM; in the experiment on LOX IMVI melanoma, 1.85 µM; in the experiment with MOLT-4 leukemia, 2.16 µM. In addition, the GI50 is 2.22 µM in the experiment with NCI-H23 lung, 2.19 µM in the experiment with SK-MEL-2 melanoma, 4.4 µM with UACC-257 melanoma and 2.19 µM with UO-31 renal. Moreover, the TGI is 6.05 µM in the experiment on A498 renal; 12.3 µM in the experiment with ACHN renal; 7.53 µM with BT-549 breast; 11 µM with EKVX NSCLC; 3.76 µM with LOX IMVI melanoma; 7.63 µM with MOLT-4 leukemia. The TGI was determined as 4.83 µM with NCI-H23 lung, 4.44 µM with SK-MEL-2 melanoma, 15.6 µM in the experiment on UACC-257 melanoma and 7.49 µM in the experiment with UO-31 renal.
Regarding `COc1cc(/C=C2\C[C@H]3[C@@H]4CC=C5C[C@@H](OC(C)=O)CC[C@]5(C)[C@H]4CC[C@]3(C)[C@H]2OC(C)=O)ccc1OCCCn1ccnc1`, the GI50 with A498 renal was 7.19 µM; in the experiment on ACHN renal, 8.49 µM; in the experiment on BT-549 breast, 5.68 µM; in the experiment on EKVX NSCLC, 9.49 µM; with LOX IMVI melanoma, 7.46 µM; with MOLT-4 leukemia, 17.1 µM. The GI50 in the experiment with NCI-H23 lung is 9.94 µM; in the experiment with SK-MEL-2 melanoma it was 16.7 µM; with UACC-257 melanoma, 8.43 µM; in the experiment with UO-31 renal, 12.7 µM. For the same compound, the TGI in the experiment with A498 renal was 15 µM; in the experiment on ACHN renal, 15.9 µM; in the experiment on BT-549 breast, 13.6 µM; with EKVX NSCLC, 20 µM; with LOX IMVI melanoma it was 14.9 µM; with MOLT-4 leukemia it was greater than 50 µM. The TGI in the experiment with NCI-H23 lung was 21.1 µM; with SK-MEL-2 melanoma, greater than 50 µM; in the experiment with UACC-257 melanoma, 17.3 µM; in the experiment with UO-31 renal, greater than 34 µM.
